Test results taken from patent US20230218563A1, “METHODS FOR TREATING OR PREVENTING CHRONIC KIDNEY DISEASE” (Arthrosi Therapeutics, Inc., priority 2020, published 2023).

Tests used:
serum uric acid (sUA) [1] = assay: Phase 1 single dose study, pharmacodynamics (serum uric acid) in healthy adult males; format: in vivo, human
Method: The dose groups included Cohort 1 (15 mg or placebo, fasted, oral suspension), Cohort 2 (50 mg or placebo, fasted, suspension), Cohort 3 (100 mg or placebo, fasted, oral suspension), Cohort 4 (150 mg or placebo, fasted, oral suspension), Cohort 6 (50 mg or placebo, fed, oral suspension), and Cohort 7 (50 mg or placebo, fasted, oral capsule). […] An additional 8 subjects received placebo.
Decrease in sUA appeared to reach a plateau at 100 mg or lower.

serum uric acid (sUA) [2] = assay: Phase 2a cross-over study in adults with gout, serum uric acid; format: in vivo, human
[3] = 100 mg single oral, fasted, 6 h
[4] = 100 mg single oral, fasted, 12 h
[5] = 100 mg single oral, fasted, 24 h
[6] = 100 mg single oral, fasted, 30 h
[7] = 100 mg single oral, fasted, 36 h
[8] = 100 mg single oral, fasted, 48 h
[9] = 100 mg single oral, fasted, 54 h
[10] = 100 mg single oral, fasted, 60 h
[11] = 100 mg single oral, fasted, 72 h
[12] = 100 mg single oral, fasted, 96 h
[13] = 100 mg single oral, fasted, 120 h
[14] = 150 mg single oral, fasted, 6 h
[15] = 150 mg single oral, fasted, 12 h
[16] = 150 mg single oral, fasted, 24 h
[17] = 150 mg single oral, fasted, 30 h
[18] = 150 mg single oral, fasted, 36 h
[19] = 150 mg single oral, fasted, 48 h
[20] = 150 mg single oral, fasted, 54 h
[21] = 150 mg single oral, fasted, 60 h
[22] = 150 mg single oral, fasted, 72 h
[23] = 150 mg single oral, fasted, 96 h
[24] = 150 mg single oral, fasted, 120 h
[25] = single oral dose, 50 mg or higher, fasted
[26] = gout patients (sUA>7 mg/dL), once daily, Compound 1 50 mg, febuxostat 40 mg, allopurinol 300 mg, alone or combined

SMILES: [2H]c1c([2H])c([2H])c2c(C(=O)c3cc(Br)c(O)c(Br)c3)c(C(C)O)oc2c1[2H] (racemic) [Compound 1, (3,5-dibromo-4-hydroxyphenyl)(2-(1-hydroxyethyl)benzofuran-3-yl-4,5,6,7-d4)methanone]
- Percent change in serum uric acid, mean, time-matched (Day-1) baseline (serum uric acid (sUA) [1]; 50 mg single oral, fed, 30 h): −40.1%
- Serum uric acid, mean (serum uric acid (sUA) [1]; 50 mg single oral, fed, 30 h): 3.6 mg/dL
- Percent change in serum uric acid, mean, time-matched (Day-1) baseline (serum uric acid (sUA) [1]; 50 mg single oral, fed, 36 h): −37.4%
- Serum uric acid, mean (serum uric acid (sUA) [1]; 50 mg single oral, fed, 36 h): 3.9 mg/dL
- Percent change in serum uric acid, mean, time-matched (Day-1) baseline (serum uric acid (sUA) [1]; 50 mg single oral, fed, 48 h): −32.6%
- Serum uric acid, mean (serum uric acid (sUA) [1]; 50 mg single oral, fed, 48 h): 4.4 mg/dL
- Percent change in serum uric acid, mean, time-matched (Day-1) baseline (serum uric acid (sUA) [1]; 50 mg single oral, fed, 54 h): −29.8%
- Serum uric acid, mean (serum uric acid (sUA) [1]; 50 mg single oral, fed, 54 h): 4.2 mg/dL
- Percent change in serum uric acid, mean, time-matched (Day-1) baseline (serum uric acid (sUA) [1]; 50 mg single oral, fed, 60 h): −31.3%
- Serum uric acid, mean (serum uric acid (sUA) [1]; 50 mg single oral, fed, 60 h): 4.3 mg/dL
- Percent change in serum uric acid, mean, time-matched (Day-1) baseline (serum uric acid (sUA) [1]; 50 mg single oral, fed, 72 h): −23.3%
- Serum uric acid, mean (serum uric acid (sUA) [1]; 50 mg single oral, fed, 72 h): 5.0 mg/dL
- Percent change in serum uric acid, mean, time-matched (Day-1) baseline (serum uric acid (sUA) [1]; 50 mg single oral, fed, 96 h): −10.9%
- Serum uric acid, mean (serum uric acid (sUA) [1]; 50 mg single oral, fed, 96 h): 5.8 mg/dL
- Percent change in serum uric acid, mean, time-matched (Day-1) baseline (serum uric acid (sUA) [1]; 50 mg single oral, fed, 120 h): −5.8%
- Serum uric acid, mean (serum uric acid (sUA) [1]; 50 mg single oral, fed, 120 h): 6.1 mg/dL
- sUA reduction with versus without food (serum uric acid (sUA) [1]; 50 mg single oral, throughout 120 hours post-dose): no difference observed
- Percent change in serum uric acid, mean, time-matched (Day-1) baseline (serum uric acid (sUA) [1]; [3]): −31.6%
- Serum uric acid, mean (serum uric acid (sUA) [1]; [3]): 3.5 mg/dL
- Percent change in serum uric acid, mean, time-matched (Day-1) baseline (serum uric acid (sUA) [1]; [4]): −48.2%
- Serum uric acid, mean (serum uric acid (sUA) [1]; [4]): 2.6 mg/dL
- Percent change in serum uric acid, mean, time-matched (Day-1) baseline (serum uric acid (sUA) [1]; [5]): −58.8%
- Serum uric acid, mean (serum uric acid (sUA) [1]; [5]): 2.3 mg/dL
- Percent change in serum uric acid, mean, time-matched (Day-1) baseline (serum uric acid (sUA) [1]; [6]): −58.2%
- Serum uric acid, mean (serum uric acid (sUA) [1]; [6]): 2.2 mg/dL
- Percent change in serum uric acid, mean, time-matched (Day-1) baseline (serum uric acid (sUA) [1]; [7]): −52.9%
- Serum uric acid, mean (serum uric acid (sUA) [1]; [7]): 2.4 mg/dL
- Percent change in serum uric acid, mean, time-matched (Day-1) baseline (serum uric acid (sUA) [1]; [8]): −47.4%
- Serum uric acid, mean (serum uric acid (sUA) [1]; [8]): 2.9 mg/dL
- Percent change in serum uric acid, mean, time-matched (Day-1) baseline (serum uric acid (sUA) [1]; [9]): −45.7%
- Serum uric acid, mean (serum uric acid (sUA) [1]; [9]): 2.8 mg/dL
- Percent change in serum uric acid, mean, time-matched (Day-1) baseline (serum uric acid (sUA) [1]; [10]): −37.5%
- Serum uric acid, mean (serum uric acid (sUA) [1]; [10]): 3.1 mg/dL
- Percent change in serum uric acid, mean, time-matched (Day-1) baseline (serum uric acid (sUA) [1]; [11]): −38.7%
- Serum uric acid, mean (serum uric acid (sUA) [1]; [11]): 3.4 mg/dL
- Percent change in serum uric acid, mean, time-matched (Day-1) baseline (serum uric acid (sUA) [1]; [12]): −17.3%
- Serum uric acid, mean (serum uric acid (sUA) [1]; [12]): 4.6 mg/dL
- Percent change in serum uric acid, mean, time-matched (Day-1) baseline (serum uric acid (sUA) [1]; [13]): −3.8%
- Serum uric acid, mean (serum uric acid (sUA) [1]; [13]): 5.4 mg/dL
- Percent change in serum uric acid, mean, time-matched (Day-1) baseline (serum uric acid (sUA) [1]; [14]): −36.2%
- Serum uric acid, mean (serum uric acid (sUA) [1]; [14]): 3.7 mg/dL
- Percent change in serum uric acid, mean, time-matched (Day-1) baseline (serum uric acid (sUA) [1]; [15]): −50.4%
- Serum uric acid, mean (serum uric acid (sUA) [1]; [15]): 2.6 mg/dL
- Percent change in serum uric acid, mean, time-matched (Day-1) baseline (serum uric acid (sUA) [1]; [16]): −59.3%
- Serum uric acid, mean (serum uric acid (sUA) [1]; [16]): 2.5 mg/dL
- Percent change in serum uric acid, mean, time-matched (Day-1) baseline (serum uric acid (sUA) [1]; [17]): −59.1%
- Serum uric acid, mean (serum uric acid (sUA) [1]; [17]): 2.3 mg/dL
- Percent change in serum uric acid, mean, time-matched (Day-1) baseline (serum uric acid (sUA) [1]; [18]): −55.6%
- Serum uric acid, mean (serum uric acid (sUA) [1]; [18]): 2.4 mg/dL
- Percent change in serum uric acid, mean, time-matched (Day-1) baseline (serum uric acid (sUA) [1]; [19]): −53.8%
- Serum uric acid, mean (serum uric acid (sUA) [1]; [19]): 2.8 mg/dL
- Percent change in serum uric acid, mean, time-matched (Day-1) baseline (serum uric acid (sUA) [1]; [20]): −49.5%
- Serum uric acid, mean (serum uric acid (sUA) [1]; [20]): 2.9 mg/dL
- Percent change in serum uric acid, mean, time-matched (Day-1) baseline (serum uric acid (sUA) [1]; [21]): −40.8%
- Serum uric acid, mean (serum uric acid (sUA) [1]; [21]): 3.1 mg/dL
- Percent change in serum uric acid, mean, time-matched (Day-1) baseline (serum uric acid (sUA) [1]; [22]): −37.1%
- Serum uric acid, mean (serum uric acid (sUA) [1]; [22]): 3.8 mg/dL
- Percent change in serum uric acid, mean, time-matched (Day-1) baseline (serum uric acid (sUA) [1]; [23]): −25.9%
- Serum uric acid, mean (serum uric acid (sUA) [1]; [23]): 4.5 mg/dL
- Percent change in serum uric acid, mean, time-matched (Day-1) baseline (serum uric acid (sUA) [1]; [24]): −15.4%
- Serum uric acid, mean (serum uric acid (sUA) [1]; [24]): 5.2 mg/dL
- onset of sUA lowering effect (serum uric acid (sUA) [1]; [25]): 6 hours post-dose
- time of sUA nadir (serum uric acid (sUA) [1]; [25]): 24-36 hours post-dose
- time sUA remained lower than baseline levels (serum uric acid (sUA) [1]; [25]): up to 72 hours post-dose
- dose at which decrease in sUA appeared to reach a plateau (serum uric acid (sUA) [1]; single oral dose, fasted): ≤ 100 mg
- patients with sUA levels below 5 mg/dL (serum uric acid (sUA) [2]; [26]): 93%
- patients with sUA levels below 6 mg/dL (serum uric acid (sUA) [2]; [26]): 96%
- sUA level at 24 hr post-dose in all patients (serum uric acid (sUA) [2]; gout patients, 7 days dosing, 50 mg): below 6 mg/dL
- sUA after treatment in mildly renal impaired patients (serum uric acid (sUA) [2]; gout patients, Compound 1 50 mg once daily, from 8.6±1.1 mg/dL): 4.5 ± 0.8 mg/dL
- mean sUA level reached at maximum (serum uric acid (sUA) [2]; gout patients, mean baseline 8.9 mg/dL, once daily, Compound 1 50 mg, febuxostat 40 mg, allopurinol 300 mg, alone (Day 7/Day 21) or combined): 4.2 mg/dL
- reduction of mean sUA from baseline (serum uric acid (sUA) [2]; gout patients, once daily, Compound 1 50 mg, febuxostat 40 mg, allopurinol 300 mg, alone (Day 7/Day 21) or combined): 53%
- sUA % change from baseline (serum uric acid (sUA) [2]; one subject with albuminuria, sequential 7-day periods: Compound 1 50 mg (Day 7), Compound 1 50 mg/allopurinol 300 mg (Day 14), allopurinol 300 mg (Day 21)): −50.9%
